The text below walks through data of patent publication US11976058B2, “Aromatic derivatives, preparation methods, and medical uses thereof” (Bioardis LLC, priority 2019, dated 2024).

One assay concerns the target T1, human FGFR4 (Homo sapiens, UniProt P22455).
T1 construct: human FGFR4 cytoplasmic domain (460-802); GST (N); purchased Carna Biosciences 08-136
Nature of the assay: FGFR4 enzymatic assay (HTRF KinEASE-TK). The assay is classed as biochemical. The conditions noted are these: wild-type human FGFR4 cytoplasmic domain (460-802), GST-tag; 60 min preincubation at 25° C.; ATP 200 μM; read-out: Potency (IC50), FGFR4 enzymatic assay. The protocol: The ability of compounds to inhibit human FGFR4 tyrosine kinase activities was determined using a commercially available HTRF® KinEASE™-TK kit (CISBIO, Cat #62TK0PEC) according to the manufacturer's protocol. Wild-type human FGFR4 cytoplasmic domain (460-802) with N-terminal GST-tag was purchased from Carna Biosciences (Carna, Cat #08-136) and used in the kinase enzymatic assay. This assay, run in a 384-well plate format, is a generic method for measuring tyrosine kinase activities using one substrate and a universal detection system. It involves two steps: (1) Enzymatic step: the biotin labeled TK Substrate is incubated with the kinase and then ATP is added to start the enzymatic reaction; during this step, FGFR4 will phosphorylate the TK Substrate-biotin. (2) Detection step: The TK-Antibody labeled with Eu^3+-Cryptate can recognize the phosphorylated TK Substrate-biotin. When the streptavidin-XL665 conjugate binds the biotin, a FRET signal will be detected. Briefly, human FGFR4 (0.25 μg/ml) in the enzymatic buffer solutions (250 mM HEPES, pH7.0, 0.1% NaN3, 0.05% BSA, 0.5 mM Orthovanadate) were mixed with various concentrations of the test compound (dissolved in 100% DMSO). These solutions were incubated for 60 min at 25° C., and subsequently a mixture of substrate peptide and ATP was added with the final peptide and ATP concentrations at 0.3 μM and 200 μM respectively. The final reaction mixture of enzyme-substrate-ATP-compound was incubated for 40 min at 37° C. Meanwhile the detection mixture containing the TK-antibody and Streptavidin-XL665 diluted in the detection buffer (50 mM HEPES, pH7.0, with additives) was prepared, and added to the reaction mixture at final concentrations of 25 nM and 18.5 nM respectively. After incubation for 60 min at 25° C., the FRET signal of the final solution was measured at 665 nm and 612 nm emissions on a TECAN Spark 10M instrument (TECAN). The percent (%) inhibition at each concentration of a compound was calculated relative to the FRET signal in the Max and Min control wells contained within each assay plate. The Max control wells contained enzyme and substrate as 0% inhibition, and the Min control wells only contained substrate without enzyme as 100% inhibition. The concentrations and percent inhibition values for a test compound are plotted and the concentration of the compound required to achieve 50% inhibition (IC50) was determined with a four-parameter logistic dose response equation. Dose-response curves were generated using Prism (GraphPad Software, La Jolla, CA, US) to calculate IC50 values for each compound tested.

The test system of another assay is Hep3B cells. The assay is described as follows: Cell-based FGFR4 proliferation assay (CellTiter-Glo). The conditions noted are these: incubated with test compound for 3 days, CellTiter-Glo luminescence, read-out: Potency (IC50), Hep3B cell proliferation. The protocol:
Hepatocellular carcinoma cell line Hep3B (ATCC, Cat #HB-8064) were cultured at 37° C., 5% CO2 in ATCC-formulated Eagle's Minimum Essential Medium supplemented with 10% fetal bovine serum; 1% Penicillin-Streptomycin.
(§1) Cell line: Hepatocellular carcinoma cell line Hep3B (ATCC, Cat #HB-8064).
In this assay, Hep3B cells are seeded in 384-well microplates, and after exposure to experimental compounds for […], CellTiter-Glo® Luminescent Cell Viability Assay kit (Promega, Cat #G7572) are used to determine the number of viable cells in the culture based on quantitation of the ATP present, which signals the presence of metabolically active cells. Luminescent signal is proportional to the amount of ATP present. The amount of ATP is directly proportional to the number of cells present in the culture, allowing drug-induced effects on cell proliferation to be measured.
Hep3B cells were plated at a density of 4×10^4/ml cells in a 384-well black/clear microplate with 20 μL per well of MEM Medium (Gibco Cat. #11095-080) supplemented with 10% fetal bovine serum; 1% Penicillin-Streptomycin, and cultured overnight at 37° C., 5% CO2. Various concentrations of the test compound (dissolved in 100% DMSO) were added to the wells of the cell plate. The cells were incubated with the test compound for 3 days at 37° C., 5% CO2. 5 μL of CellTiter-Glo® Reagent was added to each well of the cell plate. The cell plate was incubated for 5 min at 25° C. on a plate shaker (IKA MTS 2/4) at 300 rpm. Luminescence signals were read on a TECAN Spark 10M instrument (TECAN). […] The concentrations and percent inhibition values for a test compound were plotted and the concentration of the compound required to achieve 50% inhibition (IC50) is determined with a four-parameter logistic dose response equation. Dose-response curves were generated using Prism (GraphPad Software, La Jolla, CA, US) to calculate IC50 values for each compound tested.
For orientation: Cellular ATP, detected with luciferase, serves as a proxy for viable cell number.

Assay [1] deals with MAPK phosphorylation in Hep3B cells stimulated with FGF19. Nature of the assay: FGFR4 pMAPK AlphaLISA SureFire Ultra assay. The assay is classed as cell-based. The conditions noted are these: serum-starved, compound 1 hour, FGF19 100 ng/ml for 4 hours, read-out: Potency (IC50), FGFR4 pMAPK AlphaLISA.
Text: as §1
In normal liver, circulating FGF19 drives liver cell proliferation and regulates bile acid production. However aberrant expression of FGF19 in the liver drives HCC tumorigenesis, upregulates MAPK phosphorylation in FGF19-amplified malignant liver cells. AlphaScreen SureFire technology allows the detection of phosphorylated proteins in cellular lysates in a highly sensitive, quantitative assay. In these assays, sandwich antibody complexes, which are only formed in the presence of analyte, are captured by AlphaScreen Donor and Acceptor beads, bringing them into close proximity. The excitation of the Donor bead provokes the release of singlet oxygen molecules that triggers a cascade of energy transfer in the Acceptor beads, resulting in the emission of light at 520-620 nm.
Hep3B cells were plated at a density of 1×10^4/ml cells in a 96-well plate (Corning #3599), with 100 uL per well of MEM Medium (Gibco Cat #11095-080) supplemented with 10% fetal bovine serum; 1% Penicillin-Streptomycin, and cultured overnight at 37° C., 5% CO2. Starve Hep3B cells in serum-free medium (SFM) supplemented with 0.2% BSA and incubate the cells again overnight at 37° C., 5% CO2. Various concentrations of the test compound (prepared in 2x SFM) were added to the wells of the cell plate and then incubated for 1 hour at 37° C., 5% CO2. 50 μL of FGF19 in SFM was added to each well of the cell plate with a final FGF19 concentration of 100 ng/ml, and cells treated with FGF19 were stimulated for 4 hours at 37° C., 5% CO2. 5 μL of freshly prepared Donor Mix and Acceptor Mix were sequentially added to the cell plate, each followed with 1 hour of incubation at 25° C., 5% CO2. Read the cell plate on an Alpha Technology-compatible plate reader at 570 nm AlphaScreen, using standard AlphaLISA settings. The percent (%) inhibition=((ZPE−Alpha-Signal)/(ZPE−HPE))*100% where the meanings of HPE and ZPE are as provided below.
HPE: Hundred Percent Effect, negative control well without FGF19 nor compound. Final concentration of DMSO is 0.1%.
ZPE: Zero Percent Effect, positive control well without compound. Final concentration of FGF19 is 100 ng/mL, DMSO is 0.1%.
The concentrations and percent inhibition values for a test compound were plotted and the concentration of the compound required to achieve 50% inhibition (IC50) was determined with a four-parameter logistic dose response equation. Dose-response curves were generated using Prism (GraphPad Software, La Jolla, CA, US) to calculate IC50 values for each compound tested.

Each structure is given as a SMILES string. Read-outs that look alike come from different tables or passages of the source.

T1 sequence (P22455 460-802): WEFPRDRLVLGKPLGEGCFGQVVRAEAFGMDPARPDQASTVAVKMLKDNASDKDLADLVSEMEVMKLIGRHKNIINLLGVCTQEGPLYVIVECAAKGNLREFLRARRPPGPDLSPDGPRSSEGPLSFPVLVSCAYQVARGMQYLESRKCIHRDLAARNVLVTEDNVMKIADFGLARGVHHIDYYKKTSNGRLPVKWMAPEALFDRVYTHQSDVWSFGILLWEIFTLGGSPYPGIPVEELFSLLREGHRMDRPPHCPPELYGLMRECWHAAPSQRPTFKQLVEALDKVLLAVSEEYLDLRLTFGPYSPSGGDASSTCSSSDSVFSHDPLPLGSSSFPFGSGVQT

For the compound `C=CC(=O)Nc1cnn(C)c1-c1n[nH]c2c1CCC(c1c(F)c(OC)cc(OC)c1F)C2` (single isomer, unassigned) [Compound S1-P1, N-(5-(6-(2,6-difluoro-3,5-dimethoxyphenyl)-4,5,6,7-tetrahydro-1H-indazol-3-yl)-1-methyl-1H-pyrazol-4-yl)acrylamide], the IC50 at human FGFR4 was under 10 nM; in the assay with Hep3B cells (Homo sapiens, Hep3B, 72 h) it was 10 to 100 nM; in assay [1] (Homo sapiens, Hep3B), under 10 nM.
Consider `C=CC(=O)Nc1cnn(C)c1-c1n[nH]c2c1CCC(c1c(F)c(OC)cc(OC)c1F)C2` (single isomer, unassigned) [Compound S1-P2, N-(5-(6-(2,6-difluoro-3,5-dimethoxyphenyl)-4,5,6,7-tetrahydro-1H-indazol-3-yl)-1-methyl-1H-pyrazol-4-yl)acrylamide], for which the IC50 on human FGFR4 is under 10 nM; in the assay on Hep3B cells it was 10 to 100 nM; in assay [1], under 10 nM.
Consider `C=CC(=O)Nc1ncn(C)c1-c1n[nH]c2c1CCC(c1c(F)c(OC)cc(OC)c1F)C2` (single isomer, unassigned) [Compound S3-P2, N-(5-(6-(2,6-Difluoro-3,5-dimethoxyphenyl)-4,5,6,7-tetrahydro-1H-indazol-3-yl)-1-methyl-1H-imidazol-4-yl) Acrylamide], for which the IC50 at human FGFR4 was 10 to 100 nM; in the assay with Hep3B cells, over 100 nM; in assay [1] (Homo sapiens, Hep3B), over 100 nM.
For `C=CC(=O)Nc1cnn(C)c1-c1n[nH]c2c1CCC[C@@H](c1c(F)c(OC)cc(OC)c1F)C2` (single isomer, unassigned) [Compound S4-P1], the IC50 on human FGFR4 is under 10 nM; in the assay with Hep3B cells (Homo sapiens, Hep3B, 72 h) it was under 10 nM; in assay [1] (Homo sapiens, Hep3B) it was under 10 nM.
For the compound `C=CC(=O)Nc1cnn(C)c1-c1n[nH]c2c1COC(c1c(F)c(OC)cc(OC)c1F)C2` (single isomer, unassigned) [Compound S6-P2, N-(5-(6-(2,6-difluoro-3,5-dimethoxyphenyl)-1,4,6,7-tetrahydropyrano[4,3-c]pyrazol-3-yl)-1-methyl-1H-pyrazol-4-yl) acrylamide], the IC50 at human FGFR4 is 10 to 100 nM; in the assay with Hep3B cells, over 100 nM; in assay [1] (Homo sapiens, Hep3B), 10 to 100 nM.
Consider `[2H]C([2H])([2H])Oc1cc(OC([2H])([2H])[2H])c(F)c(C2CCc3c(-c4c(NC(=O)C=C)cnn4C)n[nH]c3C2)c1F` (single isomer, unassigned) [Compound S8-P1, N-(5-(6-(2,6-difluoro-3,5-bis(methoxy-d3)phenyl)-4,5,6,7-tetrahydro-1H-indazol-3-yl)-1-methyl-1H-pyrazol-4-yl) acrylamide], for which the IC50 at human FGFR4 was under 10 nM; with Hep3B cells (Homo sapiens, Hep3B, 72 h), 10 to 100 nM; in assay [1] (Homo sapiens, Hep3B), under 10 nM.
On to `[2H]C([2H])([2H])Oc1cc(OC([2H])([2H])[2H])c(F)c(C2CCc3c(-c4c(NC(=O)C=C)cnn4C)n[nH]c3C2)c1F` (single isomer, unassigned) [Compound S8-P2, N-(5-(6-(2,6-difluoro-3,5-bis(methoxy-d3)phenyl)-4,5,6,7-tetrahydro-1H-indazol-3-yl)-1-methyl-1H-pyrazol-4-yl) acrylamide], for which the values for the IC50 (on human FGFR4; in the assay on Hep3B cells; in assay [1]) were under 10 nM, 10 to 100 nM and under 10 nM, respectively.
Consider `[2H]C([2H])([2H])Oc1cc(OC([2H])([2H])[2H])c(F)c(C2CCc3c(-c4c(NC(=O)C=C)cnn4C)n[nH]c3C2)c1` (single isomer, unassigned) [Compound S8-P3, N-(5-(6-(2-fluoro-3,5-bis(methoxy-d3)phenyl)-4,5,6,7-tetrahydro-1H-indazol-3-yl)-1-methyl-1H-pyrazol-4-yl) acrylamide], for which the IC50 at human FGFR4 was 10 to 100 nM; in the assay on Hep3B cells (Homo sapiens, Hep3B, 72 h), over 100 nM; in assay [1] (Homo sapiens, Hep3B), 10 to 100 nM.
Take `[2H]C([2H])([2H])Oc1cc(OC([2H])([2H])[2H])c(F)c(C2CCc3c(-c4c(NC(=O)C=C)cnn4C)n[nH]c3C2)c1` (single isomer, unassigned) [Compound S8-P4, N-(5-(6-(2-fluoro-3,5-bis(methoxy-d3)phenyl)-4,5,6,7-tetrahydro-1H-indazol-3-yl)-1-methyl-1H-pyrazol-4-yl) acrylamide]: the IC50 on human FGFR4 is 10 to 100 nM; with Hep3B cells, over 100 nM; in assay [1], 10 to 100 nM.
